Experimental findings from PMC3266168 (Journal of Medicinal Chemistry, 2011) are described below.

One test addresses F. tularensis FabI (Francisella tularensis subsp. tularensis, UniProt Q5NGQ3). Format: biochemical.
Another test deals with F. tularensis. As to the kind of experiment: microbe, parasite or virus in culture. The class given is cell-based. The conditions noted are these: Francisella tularensis.
In a further test the test system is E.coli (BW251113). Format: cell-based.
Test [1] relates to E.coli TolC mutant (BW251113-TolC-). The class given is cell-based.

Converted amounts (≈) assume the structure as drawn.

F. tularensis FabI, sequence (Q5NGQ3 1-260): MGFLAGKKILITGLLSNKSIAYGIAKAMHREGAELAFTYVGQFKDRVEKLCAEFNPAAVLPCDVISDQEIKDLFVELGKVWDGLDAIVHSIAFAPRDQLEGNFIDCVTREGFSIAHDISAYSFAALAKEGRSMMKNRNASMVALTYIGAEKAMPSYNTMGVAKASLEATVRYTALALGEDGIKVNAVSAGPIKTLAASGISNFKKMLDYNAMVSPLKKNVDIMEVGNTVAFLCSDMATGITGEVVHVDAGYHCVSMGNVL

In the case of `Nc1ncc(Cc2ccc(Cl)cc2)s1` [Compound 1], the “L.E. (Ligand Efficiency)” value at F. tularensis FabI is 0.41.

Consider `Clc1ccc(Cn2cnc3ccccc32)cc1` [Compound 2, 1-(4-chlorobenzyl) benzimidazole], for which the “L.E. (Ligand Efficiency)” value on F. tularensis FabI amounted to 0.37.

Turning to `Clc1ccc(Cn2cnc3ccccc32)cc1Cl` [Compound 6], the “fold increase in activity (IC50) over hit compound 2” value at F. tularensis FabI is ~10 fold. The MIC against F. tularensis turned out to be 15.6 µg/mL (≈ 56.3 µM).

With `Cc1cc2ncn(Cc3ccc(Cl)c(Cl)c3)c2cc1C` [Compound 9], at F. tularensis FabI, the “fold increase in activity (IC50) over hit compound 2” value is 100 fold. For the same compound, the figures for the MIC (against E.coli (BW251113); in test [1]) were >200 (3) μg/mL and 6.25 (3) μg/mL, respectively.
